Data taken from patent US20220073554A1, “LINCOSAMIDE ANTIBIOTICS AND USES THEREOF” (President and Fellows of Harvard College, priority 2017, published 2022).
Converted amounts (≈) assume the structure as drawn. Where two headings read alike, the source gives them in different places.

Legend:
Type in all cases: cell-based
[1] = test system: S. aureus MMX 3035 cErmA; assay: MIC against S. aureus MMX 3035 cErmA; conditions: Staphylococcus aureus, MMX3035CERMA
[2] = test system: S. aureus BAA 977 iErmA; assay: MIC against S. aureus BAA 977 iErmA; conditions: Staphylococcus aureus, BAA977
[3] = test system: S. pneumoniae ATCC 49619; assay: MIC against S. pneumoniae ATCC 49619; conditions: Streptococcus pneumoniae, ATCC49619; S. pneumoniae ATCC 49619; read-out: MIC
[4] = test system: H. influenzae ATCC 49247; assay: MIC against H. influenzae ATCC 49247; conditions: Haemophilus influenzae, ATCC49247; H. influenzae ATCC 49247; read-out: MIC
[5] = test system: S. aureus UNT96, NRS710, MP-618 (USA100, Erythro > 8); assay: microbe, parasite or virus in culture; conditions: Staphylococcus aureus
[6] = test system: S. pyogenes UNT-014, MP-625 MacRes; assay: MIC against S. pyogenes UNT-014, MP-625 MacRes; conditions: Streptococcus pyogenes
[7] = test system: E. faecalis ATCC 29212; assay: MIC against E. faecalis ATCC 29212; conditions: Enterococcus faecalis
[8] = test system: E. faecalis UNT-047 VRE; assay: microbe, parasite or virus in culture; conditions: Enterococcus faecalis
[9] = test system: S. pneumoniae UNT-039, MP-627, TP1517 (mefA); assay: MIC against S. pneumoniae UNT-039, MP-627, TP1517 (mefA); conditions: Streptococcus pneumoniae
[10] = test system: C. difficile BAA 1805; assay: MIC against C. difficile BAA 1805; conditions: Clostridioides difficile, BAA1805; C. difficile BAA 1805; read-out: MIC
[11] = test system: E. coli MMX TolC parent strain; assay: MIC against E. coli MMX TolC parent strain; conditions: Escherichia coli
[12] = test system: S. pyogenes MMX 946 Macrolide-Resistant; assay: MIC against S. pyogenes MMX 946 Macrolide-Resistant; conditions: Streptococcus pyogenes; S. pyogenes MMX 946 Macrolide-Resistant (MacRes); read-out: MIC
[13] = test system: E. coli GUEST131 (NDM-1); assay: microbe, parasite or virus in culture; conditions: Escherichia coli
[14] = test system: S. pneumoniae TP 1537 (ermB + mefA); assay: MIC against S. pneumoniae TP 1537 (ermB + mefA); conditions: Streptococcus pneumoniae
[15] = test system: S. pneumoniae UNT-038, MP-626, TP 160 (mefA); assay: MIC against S. pneumoniae UNT-038, MP-626, TP 160 (mefA); conditions: Streptococcus pneumoniae
[16] = test system: E. coli MMX 0121 ΔTolC; assay: MIC against E. coli MMX 0121 ΔTolC; conditions: Escherichia coli
[17] = test system: S. pneumoniae MMX 3031 cMefA; assay: MIC against S. pneumoniae MMX 3031 cMefA; conditions: Streptococcus pneumoniae, MMX3031CMEFA
[18] = test system: P. aeruginosa ATCC 27853; assay: MIC against P. aeruginosa ATCC 27853; conditions: Pseudomonas aeruginosa, ATCC27853
[19] = test system: B. fragilis ATCC 25285; assay: MIC against B. fragilis ATCC 25285; conditions: Bacteroides fragilis, ATCC25285
[20] = test system: E. faecalis MMX 847 Macrolide-Resistant; assay: MIC against E. faecalis MMX 847 Macrolide-Resistant; conditions: Enterococcus faecalis
[21] = test system: K. pneumoniae IHMA 658692; KPC-2; assay: microbe, parasite or virus in culture; conditions: Klebsiella pneumoniae
[22] = test system: P. aeruginosa MMX Mex parent strain; assay: MIC against P. aeruginosa MMX Mex parent strain; conditions: Pseudomonas aeruginosa
[23] = test system: S. aureus BAA-1556 (USA 300); assay: microbe, parasite or virus in culture; conditions: Staphylococcus aureus
[24] = test system: E. coli ATCC 15922; assay: MIC against E. coli ATCC 15922; conditions: Escherichia coli, ATCC15922
[25] = test system: S. pyogenes ATCC 19615; assay: MIC against S. pyogenes ATCC 19615; conditions: Streptococcus pyogenes, ATCC19615; S. pyogenes ATCC 19615; read-out: MIC
[26] = test system: S. aureus UNT-146, MP-620, TP 506 (ermA); assay: microbe, parasite or virus in culture; conditions: Staphylococcus aureus
[27] = test system: S. aureus UNT-120, MP-619, NR522 (USA 600, GISA); assay: microbe, parasite or virus in culture; conditions: Staphylococcus aureus, USA600
[28] = test system: K. pneumoniae UNT TEM-10; assay: microbe, parasite or virus in culture; conditions: Klebsiella pneumoniae, UNTTEM10
[29] = test system: S. pneumoniae TP 1579 (ermB + tet(M, O)); assay: MIC against S. pneumoniae TP 1579 (ermB + tet(M, O)); conditions: Streptococcus pneumoniae
[30] = test system: S. aureus ATCC 29213; assay: MIC against S. aureus ATCC 29213; conditions: Staphylococcus aureus
[31] = test system: K. pneumoniae ATCC 10031; assay: MIC against K. pneumoniae ATCC 10031; conditions: Klebsiella pneumoniae, ATCC10031
[32] = test system: S. aureus MP-549 msr(a) USA 300; assay: MIC against S. aureus MP-549 msr(a) USA 300; conditions: Staphylococcus aureus, USA300, S. aureus MP-549 msr(a) USA 300
[33] = test system: E. coli MP-9 ΔTolC; assay: MIC against E. coli MP-9 ΔTolC; conditions: Escherichia coli
[34] = test system: S. aureus MP-513 clinical cErm; assay: MIC against S. aureus MP-513 clinical cErm; conditions: Staphylococcus aureus
[35] = test system: E. coli ATCC 25922; assay: MIC against E. coli ATCC 25922; conditions: Escherichia coli, ATCC25922
[36] = test system: P. aeruginosa MMX 3476 Δmex; assay: MIC against P. aeruginosa MMX 3476 Δmex; conditions: Pseudomonas aeruginosa
[37] = test system: S. aureus Micromyx USA 300; assay: MIC against S. aureus Micromyx USA 300; conditions: Staphylococcus aureus, USA300; S. aureus Micromyx USA 300; read-out: MIC
[38] = test system: S. pneumoniae MMX 3028 cErmB; assay: MIC against S. pneumoniae MMX 3028 cErmB; conditions: Streptococcus pneumoniae, MMX3028CERMB; S. pneumoniae MMX 3028 cErmB; read-out: MIC

| SMILES | MIC [2] | MIC [3] | MIC [5] | MIC [6] | MIC [8] | MIC [9] | MIC [10] | MIC [12] | MIC [16] | MIC [17] | MIC [25] | MIC [26] | MIC [27] | MIC [18] | MIC [34] | also measured |
| --- | --- | --- | --- | --- | --- | --- | --- | --- | --- | --- | --- | --- | --- | --- | --- | --- |
| CSC1O[C@H]([C@H](NC(=O)[C@H]2NC[C@@H]3CC(F)(F)CCO[C@H]32)[C@H](C)Cl)C(O)[C@@H](O)[C@H]1O (stereo partly shown) [FSA-24036] | 0.5 µg/mL (≈ 1.05 µM) | ≤ 0.06 µg/mL | > 32 µg/mL | ≤ 0.0313 µg/mL | > 32 µg/mL | ≤ 0.0313 µg/mL | 2 µg/mL (≈ 4.21 µM) | 4 µg/mL (≈ 8.42 µM) | 8 µg/mL (≈ 16.8 µM) | ≤ 0.06 µg/mL | ≤ 0.0313 µg/mL | > 32 µg/mL | > 32 µg/mL |  |  | MIC ([1]; S. aureus MMX 3035 cErmA, read-out: MIC): > 64 µg/mL; MIC [4]: 4 µg/mL (≈ 8.42 µM); MIC ([7]; ATCC29212, read-out: MIC): 4 µg/mL (≈ 8.42 µM); MIC ([11]; E. coli MMX TolC parent strain, read-out: MIC): > 64 µg/mL; MIC [13]: > 32 µg/mL; MIC [14]: > 32 µg/mL; MIC [15]: ≤ 0.0313 µg/mL; MIC ([18]; P. aeruginosa ATCC 27853, read-out: MIC): > 64 µg/mL; MIC ([19]; B. fragilis ATCC 25285, read-out: MIC): 4 µg/mL (≈ 8.42 µM); MIC ([20]; E. faecalis MMX 847 Macrolide-Resistant (MacRes), read-out: MIC): > 64 µg/mL; MIC [21]: > 32 µg/mL; MIC ([22]; P. aeruginosa MMX Mex parent strain, read-out: MIC): > 64 µg/mL; MIC [23]: > 32 µg/mL; MIC ([24]; E. coli ATCC 15922, read-out: MIC): > 64 µg/mL; MIC [28]: > 32 µg/mL; MIC [29]: ≤ 0.0313 µg/mL |
| CSC1O[C@H]([C@H](NC(=O)[C@H]2NC[C@@H]3C[C@H]4OC(C)(C)O[C@H]4CO[C@H]32)[C@H](C)Cl)C(O)[C@@H](O)[C@H]1O (stereo partly shown) [FSA-501099] | > 64 µg/mL | 8 µg/mL (≈ 15.7 µM) | > 64 µg/mL | 32 µg/mL (≈ 62.6 µM) | > 64 µg/mL | 2 µg/mL (≈ 3.91 µM) |  |  |  |  |  | > 64 µg/mL | > 64 µg/mL | > 64 µg/mL | > 64 µg/mL | MIC ([30]; ATCC29213): > 64 µg/mL; MIC [31]: > 64 µg/mL; MIC ([7]; ATCC29212): > 64 µg/mL; MIC [32]: > 64 µg/mL; MIC [33]: > 64 µg/mL; MIC [35]: > 64 µg/mL |
| CSC1O[C@H]([C@H](NC(=O)[C@H]2NC[C@@H]3CC=CCO[C@H]32)[C@H](C)Sc2ccc(-c3cncnc3)cc2)C(O)[C@@H](O)[C@H]1O (stereo partly shown) [FSA-27049] | 2 µg/mL (≈ 3.4 µM) | ≤ 0.06 µg/mL |  |  |  |  | 1 µg/mL (≈ 1.7 µM) | 2 µg/mL (≈ 3.4 µM) | 8 µg/mL (≈ 13.6 µM) | ≤ 0.06 µg/mL | ≤ 0.06 µg/mL |  |  | > 64 µg/mL | > 64 µg/mL | MIC [1]: > 64 µg/mL; MIC ([30]; ATCC29213, S. aureus ATCC 29213, read-out: MIC): 1 µg/mL (≈ 1.7 µM); MIC [36]: > 64 µg/mL; MIC [11]: > 64 µg/mL; MIC [19]: > 64 µg/mL; MIC [20]: > 64 µg/mL; MIC [22]: > 64 µg/mL; MIC [24]: > 64 µg/mL; MIC [37]: 1 µg/mL (≈ 1.7 µM); MIC [38]: 39 µg/mL (≈ 66.2 µM) |
